Data from US10100064B2, “Purine inhibitors of human phosphatidylinositol 3-kinase delta” (Merck Sharp & Dohme Corp., priority 2014, dated 2018).

Columns and labels:
PI3Kalpha = target: T1, PI3Kalpha (Homo sapiens, UniProt P42336); assay: HTRF PI3K biochemical assay, alpha isoform (selectivity versus delta); conditions: relative ratio PI3K-alpha IC50 value / PI3K-delta IC50 value
T1 construct: purchased Upstate; Millipore 14-602
In short: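 Recombinant PI3Kα (0.5 nM) pre-incubated 15 min with compound, then reacted 1 h at room temperature with 5 μM PIP2 and 100 μM ATP. After EDTA stop, PIP3 measured by HTRF displacement of biotin-PIP3 from GST-GRP1 PH domain (665/620 nm). 10-point dose response; IC50 corrected using a PIP3 standard curve.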

PI3Kdelta = target: T2, PI3Kdelta (Homo sapiens, UniProt O00329); assay: HTRF PI3K biochemical assay, delta isoform; conditions: 0.3 nM enzyme, 100 uM ATP, 5 uM PIP2, form screened (Neutral or TFA salt) given per compound
T2 construct: purchased Upstate; Millipore 14-604
In short: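 PI3Kδ at 0.3 nM with 100 uM ATP and 5 uM PIP2, 10-point 3-fold dilutions, 15 min enzyme–compound pre-incubation, then 1 h reaction at room temperature. PIP3 formation detected by HTRF displacement of biotin-PIP3 from GST-GRP1-PH (665/620 nm ratio). IC50 corrected using a PIP3 standard curve.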

T1 sequence (P42336 whole entry, canonical isoform): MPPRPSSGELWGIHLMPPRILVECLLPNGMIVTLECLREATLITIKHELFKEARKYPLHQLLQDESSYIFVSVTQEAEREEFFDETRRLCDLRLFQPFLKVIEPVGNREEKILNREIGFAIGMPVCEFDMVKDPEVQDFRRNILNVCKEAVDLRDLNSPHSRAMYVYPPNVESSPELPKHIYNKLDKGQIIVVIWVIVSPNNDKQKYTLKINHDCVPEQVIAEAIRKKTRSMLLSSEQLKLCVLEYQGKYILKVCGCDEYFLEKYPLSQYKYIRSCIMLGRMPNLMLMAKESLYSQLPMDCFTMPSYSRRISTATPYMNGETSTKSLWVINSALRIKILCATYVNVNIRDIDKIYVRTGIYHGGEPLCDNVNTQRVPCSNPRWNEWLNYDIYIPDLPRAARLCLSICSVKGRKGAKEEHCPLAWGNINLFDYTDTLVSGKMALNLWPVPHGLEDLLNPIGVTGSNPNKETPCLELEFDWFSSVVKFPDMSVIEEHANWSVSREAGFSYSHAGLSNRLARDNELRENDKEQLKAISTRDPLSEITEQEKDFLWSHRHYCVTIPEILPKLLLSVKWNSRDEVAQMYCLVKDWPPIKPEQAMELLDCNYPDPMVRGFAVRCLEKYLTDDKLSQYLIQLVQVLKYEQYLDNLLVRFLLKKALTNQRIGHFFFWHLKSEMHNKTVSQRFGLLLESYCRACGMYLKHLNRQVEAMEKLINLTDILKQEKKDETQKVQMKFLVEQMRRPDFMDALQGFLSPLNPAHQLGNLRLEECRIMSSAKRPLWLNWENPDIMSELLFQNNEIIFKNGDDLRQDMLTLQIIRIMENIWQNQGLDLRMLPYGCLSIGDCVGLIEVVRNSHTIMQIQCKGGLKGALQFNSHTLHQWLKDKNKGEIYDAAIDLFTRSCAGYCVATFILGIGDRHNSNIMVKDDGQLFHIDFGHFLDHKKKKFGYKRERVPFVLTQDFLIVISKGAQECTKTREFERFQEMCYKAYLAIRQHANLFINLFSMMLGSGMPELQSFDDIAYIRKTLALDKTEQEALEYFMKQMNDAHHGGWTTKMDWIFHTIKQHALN
T1 sequence (P27986 whole entry partner, canonical isoform): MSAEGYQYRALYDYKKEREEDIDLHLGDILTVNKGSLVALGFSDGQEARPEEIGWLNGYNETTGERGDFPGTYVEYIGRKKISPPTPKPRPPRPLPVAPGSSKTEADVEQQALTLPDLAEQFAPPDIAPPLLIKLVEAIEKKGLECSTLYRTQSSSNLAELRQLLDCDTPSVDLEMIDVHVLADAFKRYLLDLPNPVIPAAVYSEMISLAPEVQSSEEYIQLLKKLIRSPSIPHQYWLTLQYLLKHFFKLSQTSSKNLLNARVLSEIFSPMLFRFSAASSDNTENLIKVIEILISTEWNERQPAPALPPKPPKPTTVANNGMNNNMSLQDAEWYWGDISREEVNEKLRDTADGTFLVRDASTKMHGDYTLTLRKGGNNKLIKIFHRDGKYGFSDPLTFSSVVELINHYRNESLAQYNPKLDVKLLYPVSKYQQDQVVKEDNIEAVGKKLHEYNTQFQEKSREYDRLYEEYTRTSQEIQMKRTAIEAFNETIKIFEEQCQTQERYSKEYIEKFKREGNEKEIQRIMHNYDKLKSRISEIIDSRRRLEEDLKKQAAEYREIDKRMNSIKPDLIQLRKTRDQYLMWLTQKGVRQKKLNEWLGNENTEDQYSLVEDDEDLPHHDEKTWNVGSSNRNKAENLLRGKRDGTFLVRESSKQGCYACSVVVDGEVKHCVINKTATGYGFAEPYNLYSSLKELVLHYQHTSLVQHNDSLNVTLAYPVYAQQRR
T2 sequence (O00329 whole entry, canonical isoform): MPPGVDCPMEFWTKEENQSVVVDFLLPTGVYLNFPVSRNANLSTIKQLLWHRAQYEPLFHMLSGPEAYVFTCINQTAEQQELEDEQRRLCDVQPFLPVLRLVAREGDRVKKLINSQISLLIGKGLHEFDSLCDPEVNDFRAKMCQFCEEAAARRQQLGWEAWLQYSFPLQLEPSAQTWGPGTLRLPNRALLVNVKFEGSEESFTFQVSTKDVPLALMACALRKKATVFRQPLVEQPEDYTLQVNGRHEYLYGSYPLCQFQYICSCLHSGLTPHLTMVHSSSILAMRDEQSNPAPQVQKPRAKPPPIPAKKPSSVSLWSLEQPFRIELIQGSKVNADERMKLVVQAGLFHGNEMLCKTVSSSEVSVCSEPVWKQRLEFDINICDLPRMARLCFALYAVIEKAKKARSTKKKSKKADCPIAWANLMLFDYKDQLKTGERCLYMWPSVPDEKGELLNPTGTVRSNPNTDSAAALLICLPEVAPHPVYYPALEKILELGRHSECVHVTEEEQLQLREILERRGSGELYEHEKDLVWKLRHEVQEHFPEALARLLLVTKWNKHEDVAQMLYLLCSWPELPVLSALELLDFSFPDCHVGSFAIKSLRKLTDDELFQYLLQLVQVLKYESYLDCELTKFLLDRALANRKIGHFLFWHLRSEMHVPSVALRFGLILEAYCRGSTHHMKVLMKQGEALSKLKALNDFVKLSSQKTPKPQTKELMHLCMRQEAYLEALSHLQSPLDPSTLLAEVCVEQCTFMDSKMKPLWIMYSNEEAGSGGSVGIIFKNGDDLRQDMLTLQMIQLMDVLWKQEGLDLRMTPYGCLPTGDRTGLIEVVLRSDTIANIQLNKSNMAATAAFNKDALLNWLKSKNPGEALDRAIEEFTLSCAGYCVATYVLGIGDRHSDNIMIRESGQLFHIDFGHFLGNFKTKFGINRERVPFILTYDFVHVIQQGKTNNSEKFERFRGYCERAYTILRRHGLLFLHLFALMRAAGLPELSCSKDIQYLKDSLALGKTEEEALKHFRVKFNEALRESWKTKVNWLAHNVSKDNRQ
T2 sequence (P27986 whole entry partner, canonical isoform): as the sequence (P27986 whole entry partner, canonical isoform) above

Compound | Selectivity versus PI3Kalpha (PI3Kalpha) | IC50 (PI3Kdelta)
CCn1c(-c2cnc(C)nc2)nc2c(OC3CCc4nnc(C5CCC5)n4C3)ncnc21 (single isomer, unassigned) [Compound 1-35, (S or R)-6-{[3-cyclobutyl-5,6,7,8-tetrahydro[1,2,4]triazolo[4,3-a]pyridin-6-yl]oxy}-9-ethyl-8-(2-methylpyrimidin-5-yl)-9H-purine] | >10 | 19 nM
CCn1c(-c2cnc(C)nc2)nc2c(OC3CCc4nnc(C5CCC5)n4C3)ncnc21 (single isomer, unassigned) [Compound 1-36, (S or R)-6-{[3-cyclobutyl-5,6,7,8-tetrahydro[1,2,4]triazolo[4,3-a]pyridin-6-yl]oxy}-9-ethyl-8-(2-methylpyrimidin-5-yl)-9H-purine] | >10 | 1.1 nM
CCn1c(-c2cnc(C)nc2)nc2c(NC3CCc4[nH]nc(C5CC5)c4C3)ncnc21 (single isomer, unassigned) [Compound 2-2, (S or R)-N-[3-cyclopropyl-4,5,6,7-tetrahydro-1H-indazol-5-yl]-9-ethyl-8-(2-methylpyrimidin-5-yl)-9H-purin-6-amine] | >10 | 2.9 nM
CCn1c(-c2cnc(C)nc2)nc2c(NC3CCc4[nH]nc(C(C)C)c4C3)ncnc21 (single isomer, unassigned) [Compound 2-4, (S or R)-9-ethyl-N-[3-(1-methylethyl)-4,5,6,7-tetrahydro-1H-indazol-5-yl]-8-(2-methylpyrimidin-5-yl)-9H-purin-6-amine] | >10 | 1.8 nM
CCn1c(-c2cnc(C)nc2)nc2c(NC3(C)CCc4[nH]nc(C(C)C)c4C3)ncnc21 (single isomer, unassigned) [Compound 2-5, (S or R)-9-ethyl-N-[5-methyl-3-(1-methylethyl)-4,5,6,7-tetrahydro-1H-indazol-5-yl]-8-(2-methylpyrimidin-5-yl)-9H-purin-6-amine] | >10 | 4.1 nM
CCn1c(-c2cnc(C)nc2)nc2c(NC3(C)CCc4[nH]nc(C(C)C)c4C3)ncnc21 (single isomer, unassigned) [Compound 2-6, (S or R)-9-ethyl-N-[5-methyl-3-(1-methylethyl)-4,5,6,7-tetrahydro-1H-indazol-5-yl]-8-(2-methylpyrimidin-5-yl)-9H-purin-6-amine] | >10 | 21 nM
CCn1c(-c2ccc(C(F)(F)F)cc2)nc2c(NC3CCc4[nH]nc(C(C)C)c4C3)ncnc21 (single isomer, unassigned) [Compound 2-7, (S or R)-9-ethyl-N-[3-(1-methylethyl)-4,5,6,7-tetrahydro-1H-indazol-5-yl]-8-[4-(trifluoromethyl)phenyl]-9H-purin-6-amine] | >10 | 1.7 nM
CCn1c(-c2ccc(C(F)(F)F)cc2)nc2c(NC3CCc4[nH]nc(C(C)C)c4C3)ncnc21 (single isomer, unassigned) [Compound 2-8, (S or R)-9-ethyl-N-[3-(1-methylethyl)-4,5,6,7-tetrahydro-1H-indazol-5-yl]-8-[4-(trifluoromethyl)phenyl]-9H-purin-6-amine] | >10 | 210 nM
CCCn1nc(C(C)C)c2c1CCC(Nc1ncnc3c1nc(-c1cnc(C)nc1)n3CC)C2 (single isomer, unassigned) [Compound 2-10, (S or R)-9-ethyl-N-[3-(1-methylethyl)-1-propyl-4,5,6,7-tetrahydro-1H-indazol-5-yl]-8-(2-methylpyrimidin-5-yl)-9H-purin-6-amine] | >10 | 6.1 nM
CCn1c(-c2cnc(C)nc2)nc2c(NC3CCc4c(c(C(C)C)nn4CCO)C3)ncnc21 (single isomer, unassigned) [Compound 2-11, (S or R)-2-[5-{[9-ethyl-8-(2-methylpyrimidin-5-yl)-9H-purin-6-yl]amino}-3-(1-methylethyl)-4,5,6,7-tetrahydro-1H-indazol-1-yl]ethanol] | >10 | 2.1 nM
CCn1c(-c2cnc(C)nc2)nc2c(NC3CCc4c(c(C(C)C)nn4C(=O)OC)C3)ncnc21 (single isomer, unassigned) [Compound 2-19, (S or R)-methyl 5-{[9-ethyl-8-(2-methylpyrimidin-5-yl)-9H-purin-6-yl]amino}-3-(1-methylethyl)-4,5,6,7-tetrahydro-1H-indazole-1-carboxylate] | >10 | 1 nM
CCn1c(-c2cnc(C)nc2)nc2c(NC3CCc4nn(C)c(C(C)C)c4C3)ncnc21 (single isomer, unassigned) [Compound 2-24, (S or R)-9-ethyl-N-[(5S)-2-methyl-3-(1-methylethyl)-4,5,6,7-tetrahydro-2H-indazol-5-yl]-8-(2-methylpyrimidin-5-yl)-9H-purin-6-amine] | >10 | 41 nM
CCn1c(-c2cnc(C)nc2)nc2c(NC3CCc4c(c(C(C)C)nn4C)C3)ncnc21 (single isomer, unassigned) [Compound 2-25, (S or R)-9-ethyl-N-[(5S)-1-methyl-3-(1-methylethyl)-4,5,6,7-tetrahydro-1H-indazol-5-yl]-8-(2-methylpyrimidin-5-yl)-9H-purin-6-amine] | >10 | 14 nM
CCn1c(-c2cnc(C)nc2)nc2c(NC3CCc4cnc(C5CC5)n4C3)ncnc21 (single isomer, unassigned) [Compound 3-1, (S or R)-N-[3-cyclopropyl-5,6,7,8-tetrahydroimidazo[1,5-a]pyridin-6-yl]-9-ethyl-8-(2-methylpyrimidin-5-yl)-9H-purin-6-amine] | >10 | 11 nM
CCn1c(-c2cnc(C)nc2)nc2c(NC3CCc4cnc(C(C)C)n4C3)ncnc21 (single isomer, unassigned) [Compound 3-2, (S or R)-9-ethyl-N-[3-(1-methylethyl)-5,6,7,8-tetrahydroimidazo[1,5-a]pyridin-6-yl)-8-(2-methylpyrimidin-5-yl)-9H-purin-6-amine] | >10 | 5.2 nM
CCn1c(-c2cnc(C)nc2)nc2c(NC3CCc4ncc(C5CC5)n4C3)ncnc21 (single isomer, unassigned) [Compound 4-1, (S or R)-N-(3-cyclopropyl 5,6,7,8-tetrahydroimidazo[1,2-a]pyridin-6-yl)-9-ethyl-8-(2-methylpyrimidin-5-yl)-9H-purin-6-amine] | >10 | 6.9 nM
CCn1c(-c2cnc(C)nc2)nc2c(NC3CCc4ncc(C5CC5)n4C3)ncnc21 (single isomer, unassigned) [Compound 4-2, (S or R)-N-(3-cyclopropyl-5,6,7,8-tetrahydroimidazo[1,2-a]pyridin-6-yl)-9-ethyl-8-(2-methylpyrimidin-5-yl)-9H-purin-6-amine] | >10 | 290 nM
CCn1c(-c2cnc(C)nc2)nc2c(NC3CCc4ncc(C(C)C)n4C3)ncnc21 (single isomer, unassigned) [Compound 4-3, (S or R)-9-ethyl-N-[3-(1-methylethyl)-5,6,7,8-tetrahydroimidazo[1,2-a]pyridin-6-yl]-8-(2-methylpyrimidin-5-yl)-9H-purin-6-amine] | >10 | 2.8 nM
CCn1c(-c2cnc(C)nc2)nc2c(NC3CCc4ncc(C(C)C)n4C3)ncnc21 (single isomer, unassigned) [Compound 4-4, (S or R)-9-ethyl-N-[3-(1-methylethyl)-5,6,7,8-tetrahydroimidazo[1,2-a]pyridin-6-yl]-8-(2-methylpyrimidin-5-yl)-9H-purin-6-amine] | >10 | 210 nM
CCn1c(-c2cnc(C)nc2)nc2c(NC3CCc4ncn(C5CC5)c4C3)ncnc21 (single isomer, unassigned) [Compound 5-1, (S or R)-N-(1-cyclopropyl-4,5,6,7-tetrahydro-1H-benzimidazol-6-yl)-9-ethyl-8-(2-methylpyrimidin-5-yl)-9H-purin-6-amine] | >10 | 5.5 nM
CCn1c(-c2ccc(C(F)(F)F)nc2)nc2c(NC3CCc4ncn(C5CC5)c4C3)ncnc21 (single isomer, unassigned) [Compound 5-2, (S or R)-N-(1-cyclopropyl-4,5,6,7-tetrahydro-1H-benzimidazol-6-yl)-9-ethyl-8-[6-(trifluoromethyl)pyridin-3-yl]-9H-purin-6-amine] | >10 | 3.3 nM
CCn1c(-c2ccc(C(F)(F)F)nc2)nc2c(NC3CCc4ncn(C5CC5)c4C3)ncnc21 (single isomer, unassigned) [Compound 5-3, (S or R)-N-(1-cyclopropyl-4,5,6,7-tetrahydro-1H-benzimidazol-6-yl)-9-ethyl-8-[6-(trifluoromethyl)pyridin-3-yl]-9H-purin-6-amine] | >10 | 180 nM
CCn1c(-c2ccc(C(F)(F)F)cc2)nc2c(NC3CCc4ncn(C5CC5)c4C3)ncnc21 (single isomer, unassigned) [Compound 5-4, (S or R)-N-(1-cyclopropyl-4,5,6,7-tetrahydro-1H-benzimidazol-6-yl)-9-ethyl-8-[4-(trifluoromethyl)phenyl]-9H-purin-6-amine] | >10 | 180 nM
